The target of experiment [1] is T1, human brain-derived potassium channel subunit SEQ ID NO:3 (hKvQT2) (Homo sapiens, UniProt O43526, N780T).
T1 construct: EGFP (Enhanced Green Fluorescent Protein), from pEGFPC1; expressed in transfected cells; host or cells: COS-7 and HEK 293 cells, transient transfection
Kind of experiment: cell-based. The method, then:
transfection: HEK293 cells (ATCC, Rockville, Md.) were transfected as follows: 70 ul LipoTAXI (Stratagene, La Jolla, Calif.) was added to a polystyrene tube and gently mixed. Two (2) ug pEFGPC1 (control vector used to trace the transfected cells) and 5 ug of one of the constructs (SEQ ID NO:2 in pcDNA3 or SEQ ID NO:4 in pcDNA3) was added to the lipid/media mixture and incubated for 20 minutes. Two (2)mls of OPTI-MEM I was then added and mixed gently. Cells to be transfected were washed once with OPTI-MEM I, and the 3 ml of lipid-DNA mixture were added to the washed cells and incubated at 37° C. 5% CO2 for 4-6 hours. Cells were then refed with 10% Heat Inactivated FBS (Biowhittaker, Walkersville, Md.) DMEM (Mediatech 10-017-CV). For co-expression experiments, 2 ug pEGFPC1(control vector), 5 ug of pcDNA3QT2L ((SEQ ID NO:2 in pcDNA3) and 20 ug pcDNA3QT2S (SEQ ID NO:4 in pcDNA3) were used in this protocol. Cells were diluted and replated onto 35 mm dishes 24-48 hours prior to patch clamping.
COS-7 cells (ATCC, Rockville Md.) were transfected as follows: 25 ul DMRIE-C Reagent (Gibco BRL/Life Technologies, Gaithersburg, Md.) were added to 2 ml of OPTI-MEM I (Gibco BRL/Life Technologies, Gaithersburg, Md.), mixed gently and incubated for 20 minuets. Two (2) ug pEGPPC1QT2L (EGFP fused to the N-terminus of SEQ ID NO:2) and 7.3 ug pcDNA3 or 9.3 ug pcDNA3QT2S (SEQ ID NO:4 in pcDNA3) (for a 5 molar excess over hKvQT2L (SEQ ID NO:2) construct) were added to lipid/media mixture, mixed gently and incubated for 20 minutes. Two (2) mls of OPTI-MEM I was then added to this and mixed gently. Cells to be transfected were washed once with OPTI-MEM I, and the 4 ml of lipid-DNA mixture were added to the washed cells and incubated at 37° C. 5% CO2 for 4-6 hours. Cells were then refed with 10% Heat Inactivated FBS (Biowhittaker, Walkersville, Md.) DMEM (Mediatech 10-017-CV). Cells were trypsinized, diluted and replated onto 35 mm dishes 24-48 hours prior to patch clamping.
electrophysiology: All recordings were obtained using the conventional whole cell configuration (Hammill, O. P., et al., Pfluger Arch., 391, 85-100, 1981). Cells were transfected with 5 ug pcDNA3 or 2 ug pEGFPQT2L (EGFP fused to the N-terminus of SEQ ID NO:2) 24-48 hours prior to experiments. Extracellular solution was (mM): 160 NaCl, 4.5 KCl, 1 MgC2, 2 CaCl2, 5 HEPES, 5 glucose (pH: 7.4 by NaOH, ˜325 mOsm). In K+ selectivity experiments, equimolar Na^+ was substituted by K^+. Pipette solution was (mM): 150 K-aspartate, 2 MgCl2, 1 CaCl2, 5 HEPES, 1.6 EGTA (pH: 7.2 by KOH, ˜305 mOsm). Voltage protocols were implemented and data acquired using pClamp 6.0 software (Axon Instr., CA). Solution changes and drug application with a local perfusion system.

The test system of another experiment is SN56 cells. To be noted: attenuation of the potassium current; cited from earlier work.
Experiment [2] has as its system mouse neocortical neurons. To be noted: cited from earlier work; for induction of apoptosis on exposure: neurons, exposure to the K+ ionophore or K+-channel opener.
A further experiment addresses hKQT2 and hKQT3 (Homo sapiens, UniProt O43525+O43526). To be noted: co-expression in oocytes, current mimics native M-currents; cited from earlier work.

These results are taken from US20060183105A1, “Human brain-derived tissue-specific potassium channel” (priority 1997, published 2006).

T1 sequence (O43526 1-854 isoform O43526-2 N762T): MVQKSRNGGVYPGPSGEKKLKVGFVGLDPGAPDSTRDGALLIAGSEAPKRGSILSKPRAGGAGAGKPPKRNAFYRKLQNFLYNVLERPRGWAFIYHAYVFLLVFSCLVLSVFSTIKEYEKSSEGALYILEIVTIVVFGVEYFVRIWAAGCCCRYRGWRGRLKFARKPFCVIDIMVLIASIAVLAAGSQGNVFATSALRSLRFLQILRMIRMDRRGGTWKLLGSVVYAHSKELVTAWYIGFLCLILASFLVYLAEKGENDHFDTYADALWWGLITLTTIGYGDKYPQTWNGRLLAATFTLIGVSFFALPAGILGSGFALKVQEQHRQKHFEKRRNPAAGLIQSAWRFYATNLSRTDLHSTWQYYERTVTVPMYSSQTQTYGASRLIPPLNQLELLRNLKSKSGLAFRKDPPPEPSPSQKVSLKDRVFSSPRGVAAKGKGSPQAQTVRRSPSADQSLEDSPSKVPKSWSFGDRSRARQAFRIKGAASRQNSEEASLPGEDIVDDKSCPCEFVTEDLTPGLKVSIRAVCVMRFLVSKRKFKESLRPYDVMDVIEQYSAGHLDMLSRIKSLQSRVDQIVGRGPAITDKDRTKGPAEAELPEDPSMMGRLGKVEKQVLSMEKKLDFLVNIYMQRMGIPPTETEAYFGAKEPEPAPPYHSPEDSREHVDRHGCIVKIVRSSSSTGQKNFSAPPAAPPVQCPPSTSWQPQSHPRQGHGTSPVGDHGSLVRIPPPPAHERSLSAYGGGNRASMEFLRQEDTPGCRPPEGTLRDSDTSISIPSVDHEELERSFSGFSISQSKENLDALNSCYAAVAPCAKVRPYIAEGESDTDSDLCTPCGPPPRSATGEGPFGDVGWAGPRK
Chain of hKQT2 and hKQT3 (O43526 whole entry): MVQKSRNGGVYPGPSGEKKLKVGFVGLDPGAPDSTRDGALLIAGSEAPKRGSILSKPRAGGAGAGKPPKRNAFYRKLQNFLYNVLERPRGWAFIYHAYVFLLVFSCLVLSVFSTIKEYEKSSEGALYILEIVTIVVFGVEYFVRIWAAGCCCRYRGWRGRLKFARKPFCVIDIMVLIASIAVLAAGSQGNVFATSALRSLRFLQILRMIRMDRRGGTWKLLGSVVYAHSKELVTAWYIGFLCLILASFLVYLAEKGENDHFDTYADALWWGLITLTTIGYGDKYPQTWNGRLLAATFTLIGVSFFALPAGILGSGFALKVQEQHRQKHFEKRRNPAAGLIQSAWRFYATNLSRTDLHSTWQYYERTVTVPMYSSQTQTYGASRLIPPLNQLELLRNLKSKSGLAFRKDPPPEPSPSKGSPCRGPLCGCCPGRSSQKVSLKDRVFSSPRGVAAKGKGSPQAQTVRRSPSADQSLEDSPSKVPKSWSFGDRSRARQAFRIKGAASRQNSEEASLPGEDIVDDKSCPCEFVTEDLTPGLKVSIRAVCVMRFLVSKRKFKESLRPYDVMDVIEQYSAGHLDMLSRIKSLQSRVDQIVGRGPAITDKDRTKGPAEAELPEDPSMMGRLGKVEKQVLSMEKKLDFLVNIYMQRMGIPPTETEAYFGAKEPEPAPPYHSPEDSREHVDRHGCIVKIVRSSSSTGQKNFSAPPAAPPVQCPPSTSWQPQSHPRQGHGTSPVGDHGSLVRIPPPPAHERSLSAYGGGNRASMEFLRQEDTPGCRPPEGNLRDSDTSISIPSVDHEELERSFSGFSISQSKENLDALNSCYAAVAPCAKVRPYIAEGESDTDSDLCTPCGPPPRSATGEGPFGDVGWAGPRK
Chain of hKQT2 and hKQT3 (O43525 whole entry): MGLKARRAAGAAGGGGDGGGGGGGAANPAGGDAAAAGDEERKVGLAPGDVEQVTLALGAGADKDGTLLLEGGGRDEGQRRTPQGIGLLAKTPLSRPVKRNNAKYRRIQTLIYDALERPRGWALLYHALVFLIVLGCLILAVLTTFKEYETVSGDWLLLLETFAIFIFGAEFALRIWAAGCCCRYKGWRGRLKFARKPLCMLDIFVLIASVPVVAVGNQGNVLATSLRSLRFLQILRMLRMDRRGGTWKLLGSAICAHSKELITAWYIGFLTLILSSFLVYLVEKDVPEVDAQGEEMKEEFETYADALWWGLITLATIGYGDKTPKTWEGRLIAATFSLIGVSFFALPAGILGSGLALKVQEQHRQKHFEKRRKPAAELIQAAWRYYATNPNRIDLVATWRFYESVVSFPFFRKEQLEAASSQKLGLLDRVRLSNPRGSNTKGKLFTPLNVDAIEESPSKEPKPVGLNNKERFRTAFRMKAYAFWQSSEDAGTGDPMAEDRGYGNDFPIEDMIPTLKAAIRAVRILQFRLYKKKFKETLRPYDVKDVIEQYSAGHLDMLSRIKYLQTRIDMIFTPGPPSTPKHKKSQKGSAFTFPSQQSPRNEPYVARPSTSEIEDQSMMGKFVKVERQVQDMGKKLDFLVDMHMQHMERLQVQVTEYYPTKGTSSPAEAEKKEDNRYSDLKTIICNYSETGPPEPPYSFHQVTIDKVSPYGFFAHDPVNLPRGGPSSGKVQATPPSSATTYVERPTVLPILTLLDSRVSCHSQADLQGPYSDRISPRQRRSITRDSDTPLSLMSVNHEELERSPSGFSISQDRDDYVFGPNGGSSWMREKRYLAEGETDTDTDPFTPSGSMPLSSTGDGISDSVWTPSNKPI

As usually defined, the IC50 is the concentration at which inhibition is half-maximal. `CC[N+](CC)(CC)CC.[Cl-]` [TEA, tetraethylammonium chloride]: the IC50 in experiment [1] was 130 µM. For the same compound, in experiment [1] (Hill fit to mean data points, FIG. 12D), the “slope factor of Hill fit, inhibition of SEQ ID NO:3 subunit” value worked out at 0.59. In addition, in experiment [1] (externally applied, mammalian cells transfected with SEQ ID NO:2, FIG. 12D), the “block of voltage-gated outward currents” value was “blocked potently”. Further, the “effect on Aβ-mediated toxicity” value with SN56 cells is on record as “block Aβ-mediated toxicity”. In experiment [2] (apoptosis induced by serum deprivation or staurosporine, attenuating outward K+ current), the “effect on apoptosis of mouse neocortical neurons” value is “reduced apoptosis”. Besides, the “block of hKQT2/hKQT3 current” value on hKQT2 and hKQT3 is “block by TEA”.

As for `[Ba+2].[Cl-].[Cl-]` [barium], in experiment [1] (channel expressed in mammalian cells, properties match M-current), the “blocking of hKvQT2 (SEQ ID NO:3) channel” value is reported as “blocking by barium”.

As for `CC1(C)Oc2ccc(C#N)cc2C(N2CCCC2=O)C1O` (centres unmarked) [cromakalim], in experiment [2] (24 to 48 hours of exposure), the “induction of neuronal apoptosis” value is “induced typical neuronal apoptosis”. Besides, the “induction of apoptosis on exposure” value in experiment [2] is on record as “induced apoptosis”.

For `CC(C)[C@@H]1NC(=O)[C@H](C)OC(=O)[C@@H](C(C)C)NC(=O)[C@@H](C(C)C)OC(=O)[C@H](C(C)C)NC(=O)[C@H](C)OC(=O)[C@@H](C(C)C)NC(=O)[C@@H](C(C)C)OC(=O)[C@H](C(C)C)NC(=O)[C@H](C)OC(=O)[C@@H](C(C)C)NC(=O)[C@@H](C(C)C)OC1=O` [valinomycin], the “induction of neuronal apoptosis in cortical cultures” value in experiment [2] (20 nM, 24 to 48 hours) is “induced typical neuronal apoptosis”. For the same compound, the “induction of apoptosis on exposure” value in experiment [2] is recorded as “induced apoptosis”.
